Data: patent US20130060013A1, “Compounds useful for treating neurodegenerative disorders” (SATORI PHARMACEUTICALS, INC., priority 2011, published 2013)

Tests used:
Aβ-38 = Aβ-38 level in conditioned media of 2B7 cells (MSD 3-PLEX ELISA); format: cell-based; conditions: Homo sapiens, compound 5 hours at 37° C., 1% DMSO, percent vehicle fit to 4 parameter curve
Protocol: (§1) Assays were conducted to determine the ability of a Compound of Formula I to modulate […], and Aβ-38.
(§2) Plates with capture antibodies were blocked for 1-2 hours at room temperature with 150 μL of the manufactures blocking reagent.
(§3) Cultured 2B7 cells in 96 well plate with 250 uL of media per well until confluent;
(§4) Prepared serial dilutions of compounds in DMSO at 100× the final desired concentration;
(§5) Washed wells with 2B7 cells 1× with 250 uL of media;
(§6) Diluted DMSO stocks 1:100 into media:
(§7) Added 250 μL of media containing compounds (1% DMSO) to wells with 2B7 cells for 5 hours at 37° C.
(§8) Diluted conditioned media: 1 part media with 1% DMSO and 1 part blocking buffer;
(§9) 150 μL of the 250 μL of conditioned media were used.
(§10) Standard Curve Sample Prep:
(§11) Prepared per manufacturer's protocol (see above)
(§12) Seven point standard curve samples were prepared that contained Aβ-42, Aβ-40, and Aβ-38. The highest concentration of Aβ-42 and Aβ-38 was 3,000 pg/mL and the highest concentration of Aβ-40 was 10,000 pg/mL. Subsequent serial dilutions were 1:3 and the final composition of each sample was 1 part blocking buffer and 1 part cell medium containing 1% DMSO.
(§13) Overnight Sample Incubation:
(§14) Blocked plates are washed 5× with MSD wash buffer with a plate washer
(§15) 25 uL of detection antibody and blocker G reagent in MSD blocking solution is added
(§16) 25 uL of samples (1 part conditioned media containing 1% DMSO and 1 part MSD blocking buffer) are then added.
(§17) plates are incubated overnight at 4 degrees C. or 2 hours at room temp
(§18) Wash wells 5× with MSD wash buffer
(§19) Added 150 μL 2×MSD read buffer
(§20) A-Beta peptide levels for each peptide are calculated from the standard curve using the MSD software provided with the MSD 2400 Imager. Percent vehicle values for each compound dosage were then calculated and fit to a 4 parameter curve generating IC50 values.

Aβ-42 = Aβ-42 level in conditioned media of 2B7 cells (MSD 3-PLEX ELISA); format: cell-based; conditions: Homo sapiens, compound 5 hours at 37° C., 1% DMSO, percent vehicle fit to 4 parameter curve
Protocol: as §1, §2, §3, §4, §5, §6, §7, §8, §9, §10, §11, §12, §13, §14, §15, §16, §17, §18, §19, §20

Compound	IC50 (Aβ-38) [nM]	IC50 (Aβ-42) [nM]
CC(C)[C@@H](OC(=O)N1CCC1)[C@H]1C[C@@H](C)[C@H]2[C@H](O1)[C@H](O)[C@@]1(C)[C@@H]3CC[C@H]4C(C)(C)[C@@H](O[C@H]5CN(C(=O)CNS(=O)(=O)C(F)(F)F)CCO5)CCC45C[C@@]35CC[C@]21C (stereo partly shown)	< 1000	1000 to 10000
CO[C@@H]([C@H]1C[C@@H](C)[C@H]2[C@H](O1)[C@H](O)[C@@]1(C)[C@@H]3CC[C@H]4C(C)(C)[C@@H](O[C@H]5CN(C6(C)COC6)CCO5)CCC45C[C@@]35CC[C@]21C)C(C)(C)O (stereo partly shown)	1000 to 10000	1000 to 10000
CCO[C@@H]([C@H]1C[C@@H](C)[C@H]2[C@H](O1)[C@H](O)[C@@]1(C)[C@@H]3CC[C@H]4C(C)(C)[C@@H](O[C@H]5CN([C@H](C)C(=O)N(C)C)CCO5)CCC45C[C@@]35CC[C@]21C)C(C)(C)O (stereo partly shown)	< 1000	< 1000
CCO[C@@H]([C@H]1C[C@@H](C)[C@H]2[C@H](O1)[C@H](O)[C@]1(C)[C@@H]3CC[C@H]4C(C)(C)[C@@H](O[C@H]5CN([C@H](C)C(=O)N6CCC6)CCO5)CC[C@@]45C[C@@]35CC[C@@]21C)C(C)(C)O	< 1000	< 1000
CCO[C@@H]([C@@H]1C[C@H]2[C@H]([C@H](C)C1)[C@@]1(C)CCC34C[C@@]35CC[C@H](O[C@H]3CN([C@@H](C)C(=O)N(C)C)CCO3)C(C)(C)[C@@H]5CC[C@H]4[C@]1(C)[C@H]2O)C(C)(C)O (stereo partly shown)	–	< 1000
CCO[C@@H]([C@H]1C[C@@H](C)[C@H]2[C@H](O1)[C@H](O)[C@]1(C)[C@@H]3CC[C@H]4C(C)(C)[C@@H](O[C@H]5CN([C@H](C)CN6CCC6)CCO5)CC[C@@]45C[C@@]35CC[C@@]21C)C(C)(C)O	< 1000	< 1000
CO[C@@H](C1C[C@@H](C)[C@H]2C(O1)[C@H](O)[C@@]1(C)C3CC[C@H]4C(C)(C)[C@@H](O[C@H]5CN(CCN6CCC6)CCO5)CCC45C[C@@]35CC[C@]21C)C(C)(C)O (stereo partly shown)	–	< 1000
CO[C@@H]([C@H]1C[C@@H](C)[C@H]2[C@H](O1)[C@H](O)[C@@]1(C)[C@@H]3CC[C@H]4C(C)(C)[C@@H](O[C@H]5CNCCO5)CCC45C[C@@]35CC[C@]21C)C(C)(C)OC (stereo partly shown)	< 1000	< 1000
CCO[C@@H]([C@H]1C[C@@H](C)[C@H]2[C@H](O1)[C@H](O)[C@@]1(C)[C@@H]3CC[C@H]4C(C)(C)[C@@H](O[C@H]5CNCCO5)CCC45C[C@@]35CC[C@]21C)C(C)(C)OCC (stereo partly shown)	1000 to 10000	1000 to 10000
CCO[C@@H](C1C[C@@H](C)[C@H]2C(O1)[C@H](O)[C@@]1(C)C3CC[C@H]4C(C)(C)[C@@H](O[C@H]5CN(Cc6ncco6)CCO5)CCC45C[C@@]35CC[C@]21C)C(C)(C)O (stereo partly shown)	1000 to 10000	< 1000
CCO[C@@H](C1C[C@@H](C)[C@H]2C(O1)[C@H](O)[C@@]1(C)C3CC[C@H]4C(C)(C)[C@@H](O[C@H]5CN(c6ncc(F)cn6)CCO5)CCC45C[C@@]35CC[C@]21C)C(C)(C)O (stereo partly shown)	1000 to 10000	1000 to 10000
CCO[C@@H]([C@H]1C[C@@H](C)[C@H]2[C@H](O1)[C@H](O)[C@@]1(C)[C@@H]3CC[C@H]4C(C)(C)[C@@H](O[C@H]5CN(Cc6nccn6C)CCO5)CCC45C[C@@]35CC[C@]21C)C(C)(C)O (stereo partly shown)	1000 to 10000	< 1000
CCO[C@@H]([C@H]1C[C@@H](C)[C@H]2[C@H](O1)[C@H](O)[C@@]1(C)[C@@H]3CC[C@H]4C(C)(C)[C@@H](O[C@H]5CN(CC(F)(F)F)CCO5)CCC45C[C@@]35CC[C@]21C)C(C)(C)O (stereo partly shown)	1000 to 10000	1000 to 10000
CCO[C@@H]([C@H]1C[C@@H](C)[C@H]2[C@H](O1)[C@H](O)[C@@]1(C)[C@@H]3CC[C@H]4C(C)(C)[C@@H](O[C@H]5CN(c6ncccn6)CCO5)CCC45C[C@@]35CC[C@]21C)C(C)(C)O (stereo partly shown)	1000 to 10000	1000 to 10000
CCO[C@@H]([C@H]1C[C@@H](C)[C@H]2[C@H](O1)[C@H](O)[C@@]1(C)[C@@H]3CC[C@H]4C(C)(C)[C@@H](O[C@H]5CN(CC(F)F)CCO5)CCC45C[C@@]35CC[C@]21C)C(C)(C)O (stereo partly shown)	1000 to 10000	< 1000
CCO[C@@H]([C@H]1C[C@@H](C)[C@H]2[C@H](O1)[C@H](O)[C@@]1(C)[C@@H]3CC[C@H]4C(C)(C)[C@@H](OC(=O)C5CN(C6COC6)C5)CCC45C[C@@]35CC[C@]21C)C(C)(C)O (stereo partly shown)	1000 to 10000	< 1000
CCO[C@@H]([C@H]1C[C@@H](C)[C@H]2[C@H](O1)[C@H](O)[C@@]1(C)[C@@H]3CC[C@H]4C(C)(C)[C@@H](OC(=O)[C@H]5CN(C)CCO5)CCC45C[C@@]35CC[C@]21C)C(C)(C)O (stereo partly shown)	1000 to 10000	< 1000
CCO[C@@H]([C@H]1C[C@@H](C)[C@H]2[C@H](O1)[C@H](O)[C@@]1(C)[C@@H]3CC[C@H]4C(C)(C)[C@@H](OC(=O)[C@@H]5CN(C)CCO5)CC[C@@]45C[C@@]35CC[C@]21C)C(C)(C)O	1000 to 10000	< 1000
CCO[C@@H]([C@H]1C[C@@H](C)[C@H]2[C@H](O1)[C@H](O)[C@@]1(C)[C@@H]3CC[C@H]4C(C)(C)[C@@H](OC(=O)[C@@H]5CCCN5C(=O)OC(C)(C)C)CCC45C[C@@]35CC[C@]21C)C(C)(C)O (stereo partly shown)	1000 to 10000	1000 to 10000
CCO[C@@H]([C@H]1C[C@@H](C)[C@H]2[C@H](O1)[C@H](O)[C@@]1(C)[C@@H]3CC[C@H]4C(C)(C)[C@@H](OC(=O)[C@H]5CN(C(=O)OC(C)(C)C)CCO5)CCC45C[C@@]35CC[C@]21C)C(C)(C)O (stereo partly shown)	1000 to 10000	1000 to 10000
CCO[C@@H]([C@H]1C[C@@H](C)[C@H]2[C@H](O1)[C@H](O)[C@@]1(C)[C@@H]3CC[C@H]4C(C)(C)[C@@H](OC(=O)[C@H]5COCCN5C(=O)OC(C)(C)C)CCC45C[C@@]35CC[C@]21C)C(C)(C)O (stereo partly shown)	1000 to 10000	1000 to 10000
CCO[C@@H]([C@H]1C[C@@H](C)[C@H]2[C@H](O1)[C@H](O)[C@@]1(C)[C@@H]3CC[C@H]4C(C)(C)[C@@H](OC(=O)[C@@H]5CN(C(=O)OC(C)(C)C)CCO5)CCC45C[C@@]35CC[C@]21C)C(C)(C)O (stereo partly shown)	< 1000	< 1000
CCO[C@@H]([C@H]1C[C@@H](C)[C@H]2[C@H](O1)[C@H](O)[C@@]1(C)[C@@H]3CC[C@H]4C(C)(C)[C@@H](OC(=O)[C@@H]5COCCN5C(=O)OC(C)(C)C)CCC45C[C@@]35CC[C@]21C)C(C)(C)O (stereo partly shown)	1000 to 10000	1000 to 10000
CCO[C@@H]([C@H]1C[C@@H](C)[C@H]2[C@H](O1)[C@H](O)[C@@]1(C)[C@@H]3CC[C@H]4C(C)(C)[C@@H](O[C@H]5CN(C6CN(S(C)(=O)=O)C6)CCO5)CCC45C[C@@]35CC[C@]21C)C(C)(C)O (stereo partly shown)	< 1000	< 1000
CCO[C@@H]([C@H]1C[C@@H](C)[C@H]2[C@H](O1)[C@H](O)[C@@]1(C)[C@@H]3CC[C@H]4C(C)(C)[C@@H](OC(=O)[C@@H]5CNCCO5)CCC45C[C@@]35CC[C@]21C)C(C)(C)O (stereo partly shown)	< 1000	< 1000
CCO[C@@H]([C@H]1C[C@@H](C)[C@H]2[C@H](O1)[C@H](O)[C@@]1(C)[C@@H]3CC[C@H]4C(C)(C)[C@@H](OC(=O)[C@@H]5COCCN5CCOC)CCC45C[C@@]35CC[C@]21C)C(C)(C)O (stereo partly shown)	1000 to 10000	< 1000
CCO[C@@H]([C@H]1C[C@@H](C)[C@H]2[C@H](O1)[C@H](O)[C@@]1(C)[C@@H]3CC[C@H]4C(C)(C)[C@@H](OC(=O)[C@H]5COCCN5C(C)C)CCC45C[C@@]35CC[C@]21C)C(C)(C)O (stereo partly shown)	1000 to 10000	< 1000
CCO[C@@H]([C@H]1C[C@@H](C)[C@H]2[C@H](O1)[C@H](O)[C@@]1(C)[C@@H]3CC[C@H]4C(C)(C)[C@@H](O[C@H]5CN(C(CO)CO)CCO5)CCC45C[C@@]35CC[C@]21C)C(C)(C)O (stereo partly shown)	< 1000	< 1000
C[C@@H]1C[C@H]([C@H](OCCO)C(C)(C)O)O[C@H]2[C@H]1[C@@]1(C)CC[C@@]34CC35CC[C@H](O[C@H]3CN(C6CN(C7COC7)C6)CCO3)C(C)(C)[C@@H]5CC[C@H]4[C@]1(C)[C@H]2O (stereo partly shown)	1000 to 10000	1000 to 10000
CCO[C@@H]([C@H]1C[C@@H](C)[C@H]2[C@H](O1)[C@H](O)[C@@]1(C)[C@@H]3CC[C@H]4C(C)(C)C(O[C@H]5CN(CCNCCNC(=O)CCC6(C)N=N6)CCO5)CC[C@@]45CC35CC[C@]21C)C(C)(C)O (stereo partly shown)	1000 to 10000	< 1000
